Experimental data as given in the NIST ThermoML archive (doi:10.1021/je100237h).
Numbers after ± are expanded uncertainties.

Settings: Liquid; for mass density: Vibrating tube method; for viscosity: 101.33 kPa, Concentric cylinders viscometry

COC(=O)CCCCC(=O)OC [dimethyl 1,6-hexanedioate]
mass density [kg/m3]
Settings	343.15 K	353.15 K	363.15 K	373.15 K	383.15 K	393.15 K	403.15 K
100 kPa	–	1002.2 ± 2	992.2 ± 2	981.9 ± 2	972.2 ± 2	961.7 ± 1.9	951.5 ± 1.9
10000 kPa	–	1010.8 ± 2	1000.6 ± 2	991 ± 2	981.1 ± 2	971.7 ± 2	961.4 ± 1.9
20000 kPa	–	1018.4 ± 2.1	1008.9 ± 2	999.5 ± 2	990.4 ± 2	981.5 ± 2	971.6 ± 2
30000 kPa	–	1025.6 ± 2.1	1016.6 ± 2	1007.7 ± 2	998.7 ± 2	990.1 ± 2	980.8 ± 2
40000 kPa	–	1032.8 ± 2.1	1023.7 ± 2.1	1014.8 ± 2	1006.3 ± 2	998.2 ± 2	989.3 ± 2
50000 kPa	–	1039 ± 2.1	1030.4 ± 2.1	1021.8 ± 2.1	1013.9 ± 2	1005.9 ± 2	997.3 ± 2
60000 kPa	–	1045.4 ± 2.1	1036.8 ± 2.1	1029 ± 2.1	1020.5 ± 2.1	1013 ± 2	1004.5 ± 2
70000 kPa	–	1051.2 ± 2.1	1042.9 ± 2.1	1035 ± 2.1	1027 ± 2.1	1019.7 ± 2.1	1011.5 ± 2.1
80000 kPa	–	1056.7 ± 2.2	1048.5 ± 2.1	1040.9 ± 2.1	1033.2 ± 2.1	1026 ± 2.1	1018.2 ± 2.1
90000 kPa	–	1061.9 ± 2.2	1053.9 ± 2.2	1046.4 ± 2.1	1039 ± 2.1	1032.1 ± 2.1	1024.5 ± 2.1
100000 kPa	–	1067.3 ± 2.2	1059.2 ± 2.2	1051 ± 2.2	1044.7 ± 2.2	1037.7 ± 2.1	1030.2 ± 2.1
110000 kPa	–	1072.2 ± 2.2	1064.3 ± 2.2	1056.3 ± 2.2	1050.1 ± 2.2	1043.1 ± 2.2	1035.9 ± 2.2
120000 kPa	–	1076.6 ± 2.3	1069.1 ± 2.3	1061.6 ± 2.2	1055.2 ± 2.2	1048.7 ± 2.2	1041.3 ± 2.2
130000 kPa	1088.3 ± 2.3	1081.3 ± 2.3	1074.1 ± 2.3	1066 ± 2.3	1059.9 ± 2.2	1053.8 ± 2.2	1046.6 ± 2.2
140000 kPa	1092.4 ± 2.4	1085.6 ± 2.3	1078.5 ± 2.3	1071.2 ± 2.3	1065.1 ± 2.3	1058.5 ± 2.3	1051.6 ± 2.3

Settings	viscosity [mPa·s]
348.15 K	1.25 ± 0.03
353.15 K	1.17 ± 0.03
358.15 K	1.1 ± 0.02
363.15 K	1.03 ± 0.02
368.15 K	0.97 ± 0.02
373.15 K	0.92 ± 0.02
